Several values for one entry are separate records, joined by “and”; a condition that tells them apart may be missing. Identical values can stand only once. Like-named read-outs stand apart in the source and are kept apart here. Ends that are not written are not given here.
Experiments:
[1] = system: pathogenic (IFN-γ) CD4+ T lymphocytes in PBMCs; assay: IFN-γ ELISPOT analysis of PBMCs cultured with peptide; format: cell-based, human; conditions: for Prevalence of IFN-γ responses, Totals (%) / Prevalence of IFN-γ responses, Totals (responders/tested): positive response SI≧3.0; for IFN-γ response, stimulation index (SI): PBMCs, peptide 10 μM
[2] = system: anti-inflammatory (IL-10 secreting) CD4+ T lymphocytes in PBMCs; format: cell-based, human; conditions: for IL-10 response, stimulation index (SI): PBMCs, peptide 10 μM
[3] = T1DM patients with HLA-DR4 alleles
[4] = T1DM patients with non-DR4 alleles
[5] = non-diabetic control subject C9
[6] = patient #3, T1DM with HLA-DR4 alleles
[7] = patient #5, T1DM with HLA-DR4 alleles
[8] = patient #6, T1DM with HLA-DR4 alleles
[9] = patient #24, T1DM with HLA-DR4 alleles
[10] = patient #27, T1DM with non-DR4 alleles
[11] = non-diabetic control subject C4
[12] = non-diabetic control subject C8
[13] = patient #35, T1DM with non-DR4 alleles
[14] = patient #4, T1DM with HLA-DR4 alleles
[15] = patient #13, T1DM with HLA-DR4 alleles
[16] = patient #19, T1DM with HLA-DR4 alleles
[17] = non-diabetic control subject C13
[18] = patient #26, T1DM with non-DR4 alleles
[19] = patient #30, T1DM with non-DR4 alleles
[20] = non-diabetic control subjects, positive response SI≧3.0
[21] = patient #28, T1DM with non-DR4 alleles
[22] = patient #29, T1DM with non-DR4 alleles
[23] = patient #10, T1DM with HLA-DR4 alleles
[24] = patient #12, T1DM with HLA-DR4 alleles

| Substance | Prevalence of IFN-γ responses, Totals (%) [1, 3] | Prevalence of IFN-γ responses, Totals (responders/tested) [1, 3] | Prevalence of IFN-γ responses, Totals (%) [1, 4] | Prevalence of IFN-γ responses, Totals (responders/tested) [1, 4] | Prevalence of IFN-γ responses, Totals (%) ([1]; non-diabetic control subjects) | Prevalence of IFN-γ responses, Totals (responders/tested) ([1]; non-diabetic control subjects) | IFN-γ response, stimulation index (SI) [1, 6] | IFN-γ response, stimulation index (SI) [1, 7] | IFN-γ response, stimulation index (SI) [1, 8] | IFN-γ response, stimulation index (SI) [1, 9] | Prevalence of IL-10 responses, Totals (responders/tested) [2] | IL-10 response, stimulation index (SI) [2, 11] | IL-10 response, stimulation index (SI) [2, 12] | IL-10 response, stimulation index (SI) [2, 6] | IL-10 response, stimulation index (SI) [2, 9] | IFN-γ response, stimulation index (SI) [1, 14] | IFN-γ response, stimulation index (SI) [1, 15] | IFN-γ response, stimulation index (SI) [1, 16] | IL-10 response, stimulation index (SI) [2, 17] | IL-10 response, stimulation index (SI) [2, 10] | other results |
| --- | --- | --- | --- | --- | --- | --- | --- | --- | --- | --- | --- | --- | --- | --- | --- | --- | --- | --- | --- | --- | --- |
| 652–80: IA-2 peptide sequence, residues 652–80 (SRVSSVSSQFSDAAQASPSSHSSTPSWCE; UniProt Q16849 652-680, looked up, fragment) | (24) % | 6/25 | (9) % | 1/11 | (7) % | 1/14 | 3.0 | 6.2 | 23.2 | 36.0 | 2/17 and 1/7 and 4/14 | 5.3 | 4.0 | 4.8 | 4.5 | – | – | – | – | – | IFN-γ response, stimulation index (SI) [1, 5]: 3.8; IFN-γ response, stimulation index (SI) ([1]; patient #2, T1DM with HLA-DR4 alleles): 3.1; IFN-γ response, stimulation index (SI) ([1]; patient #7, T1DM with HLA-DR4 alleles): 6.4; IFN-γ response, stimulation index (SI) [1, 10]: 16.7; IL-10 response, stimulation index (SI) [2, 5]: 3.5; IL-10 response, stimulation index (SI) ([2]; non-diabetic control subject C10): 8.4; IL-10 response, stimulation index (SI) [2, 13]: 8.0 |
| 793–817: IA-2 peptide sequence, residues 793–817 (DFWQMVWESGCTVIVMLTPLVEDGV; UniProt Q16849 793-817, looked up, fragment) | (12) % | 3/25 | (0) % | 0/11 | (0) % | 0/14 | 9.7 | – | – | – | 1/17 and 1/7 and 2/14 | 3.4 | – | 3.0 | – | 3.5 | 4.1 | 19.0 | 3.5 | 34.0 | – |
| 955–76: IA-2 peptide sequence, residues 955–76 (SKDQFEFALTAVAEEVNAILKA; UniProt Q16849 955-976, looked up, fragment) | (16) % | 4/25 | (18) % | 2/11 | (0) % | 0/14 | 4.7 | – | 11.2 | 38.0 | 2/17 and 1/7 | 5.6 | 15.0 | 3.0 | 29.5 | 3.0 | – | 3.0 | – | 4.0 | IFN-γ response, stimulation index (SI) [1, 18]: 5.0; IFN-γ response, stimulation index (SI) [1, 19]: 4.7; IL-10 response, stimulation index (SI) ([2]; non-diabetic control subject C11): 5.2; Prevalence of IL-10 responses, Totals (responders/tested) [2, 20]: 3/14 |
| GGGPGAGSLQPLALEGSLQK [C13-C32, preproinsulin peptide, residues C13-C32] | (12) % | 2/17 | (25) % | 2/8 | (0) % | 0/14 | – | 3.8 | 8.6 | – | – | – | – | – | – | – | – | – | – | – | IFN-γ response, stimulation index (SI) [1, 21]: 11.5; IFN-γ response, stimulation index (SI) [1, 22]: 4.7; Prevalence of IL-10 responses, Totals (responders/tested) ([2]; listed as C13–32): 1/12 and 1/5 and 1/13 |
| GSLQPLALEGSLQKRGIV [C19-A3] | (47) % | 8/17 | (38) % | 3/8 | (0) % | 0/14 | 10.7 | – | 63.6 | – | 1/12 and 2/5 | – | 29.0 | 10.21 | – | 3.5 | – | – | 5.0 | 7.0 | IFN-γ response, stimulation index (SI) ([1]; patient #8, T1DM with HLA-DR4 alleles): 3.0; IFN-γ response, stimulation index (SI) ([1]; patient #9, T1DM with HLA-DR4 alleles): 4.6; IFN-γ response, stimulation index (SI) [1, 23]: 5.0; IFN-γ response, stimulation index (SI) ([1]; patient #11, T1DM with HLA-DR4 alleles): 3.3; IFN-γ response, stimulation index (SI) [1, 24]: 10.7; IFN-γ response, stimulation index (SI) [1, 18]: 3.3; IFN-γ response, stimulation index (SI) [1, 21]: 5.0; IFN-γ response, stimulation index (SI) [1, 19]: 5.7; IL-10 response, stimulation index (SI) ([2]; non-diabetic control subject C5): 10.3; Prevalence of IL-10 responses, Totals (responders/tested) [2, 20]: 3/13; IL-10 response, stimulation index (SI) ([2]; patient #33, T1DM with non-DR4 alleles): 3.1 |
| KLKVESSPSRSDYINASPIIEHDP [752–75, IA-2 peptide eluted from HLA-DR4] | (32) % | 8/25 | (9) % | 1/11 | (0) % | 0/14 | 4.3 | – | – | – | – | – | 16.0 | 16.0 | 15.0 | – | 3.4 | 7.0 | – | 33.0 | IFN-γ response, stimulation index (SI) [1, 23]: 12.3; IFN-γ response, stimulation index (SI) [1, 24]: 3.3; IFN-γ response, stimulation index (SI) ([1]; patient #20, T1DM with HLA-DR4 alleles): 3.9; IFN-γ response, stimulation index (SI) ([1]; patient #23, T1DM with HLA-DR4 alleles): 3.6; IFN-γ response, stimulation index (SI) [1, 18]: 3.0; Prevalence of IL-10 responses, Totals (responders/tested) ([2]; T1DM patients with HLA-DR4 alleles, positive response SI≧3.0): 3/17; Prevalence of IL-10 responses, Totals (responders/tested) ([2]; listed as 725–75): 2/7 and 2/14; IL-10 response, stimulation index (SI) ([2]; non-diabetic control subject C3): 8.7; IL-10 response, stimulation index (SI) [2, 24]: 3.79; IL-10 response, stimulation index (SI) [2, 13]: 4.0 |
| LAKEWQALCAYQAEPNTCATAQGEGNIK [709–36, IA-2 peptide eluted from HLA-DR4] | (12) % | 3/25 | (0) % | 0/11 | (0) % | 0/14 | – | – | 9.2 | 10.5 | 2/17 and 1/7 | 3.6 | – | – | 9.0 | – | – | 5.0 | 3.8 | 7.0 | IL-10 response, stimulation index (SI) ([2]; non-diabetic control subject C6): 3.2; Prevalence of IL-10 responses, Totals (responders/tested) [2, 20]: 3/14; IL-10 response, stimulation index (SI) [2, 7]: 3.5 |
| QPLALEGSLQKRGIVEQ [C22-A5] | (18) % | 3/17 | (25) % | 2/8 | (0) % | 0/14 | – | 3.7 | 22.0 | – | 1/12 and 1/5 and 1/13 | – | – | 7.36 | – | – | 3.3 | – | 4.3 | 3.0 | IFN-γ response, stimulation index (SI) [1, 21]: 5.8; IFN-γ response, stimulation index (SI) [1, 22]: 4.0 |
